We go through eleven compounds from patent US8378104B2 (OSI Pharmaceuticals, LLC, priority 2010, dated 2013).

One assay has as its target T1, TAK1-TAB1 fusion protein (Homo sapiens, UniProt O43318).
T1 construct: purchased Carna
T1 sequence (O43318 with tags, fused parts or gaps limits assumed): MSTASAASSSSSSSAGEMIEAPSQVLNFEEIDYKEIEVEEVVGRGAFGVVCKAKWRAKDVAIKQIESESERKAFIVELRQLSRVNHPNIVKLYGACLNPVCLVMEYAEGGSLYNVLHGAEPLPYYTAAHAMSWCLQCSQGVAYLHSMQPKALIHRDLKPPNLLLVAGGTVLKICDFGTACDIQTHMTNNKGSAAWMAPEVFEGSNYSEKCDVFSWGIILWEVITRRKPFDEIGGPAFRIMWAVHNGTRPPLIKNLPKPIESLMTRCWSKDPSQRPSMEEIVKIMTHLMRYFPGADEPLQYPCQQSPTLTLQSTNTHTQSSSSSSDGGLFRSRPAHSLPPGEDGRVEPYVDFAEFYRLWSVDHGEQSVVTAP
Briefly: TAK1 biochemical assay (AlphaScreen, GST-MAP2K7 substrate). As to conditions: TAK1-TAB1 fusion protein, GST-MAP2K7 substrate; read-out: mean TAK1 IC50 (Col. A).

For a further assay, the system named is pJNK in HCT-116 cells. Briefly: Phospho-JNK (Thr183/Tyr185) Meso Scale ELISA assay, TNFα-stimulated HCT-116 cells. It counts as cell-based. As to conditions: Homo sapiens, read-out: mean HCT-116 pJNK ELISA IC50 (Col. B). Here is the method: Detailed below are ELISA assays for pJNK and p38, and a TAK1 biochemical assay. […] In Table 1, Col.
Phospho-JNK (Thr183/Tyr185) Meso Scale ELISA Assay
• 1. Plate HCT-116 cells at 25,000 per well in 100 uL in 96 well clear dishes in normal growth medium. Day 2: • 1. Aspirate medium and replace with 90 μl reduced serum growth medium (1% FCS), incubate for 2 hours at 37° C. • 2. Make drugs at 10× in reduced serum medium and add 10 uL per well. • 3. Incubate at 37° C. for 4 hrs. • 4. Bring capture plates to room temperature. • 5. Block with 150 μl Blocking Solution (provided with kit) (600 mg Blocker A into 20 mL 1× Wash Buffer per plate) at room temperature with shaking. • 6. Wash plates 4× with 200 μl 1× wash buffer (10× provided with kit) before transferring lysates. • 7. Dilute TNFα to […] in reduced serum medium (this makes a 10× working stock). • 8. Add 10 μl TNFα to all wells except negative control wells, final concentration is 10 ng/mL. • 9. Incubate at 37° C. for 10 minutes. • 10. Remove medium by flicking into sink • 11. Wash cells with 100 uL ice cold PBS. • 12. Remove PBS by flicking into sink and patting on paper towels. • 13. Lyse cells in 50 μl ice cold 1× Complete Lysis Buffer plus Phosphatase and Protease inhibitors (all provided with kit) (10 mL Tris Lysis Buffer+200 μl Protease inhibitor solution+100 μl Phosphatase inhibitor I+100 μl Phosphatase inhibitor II). • 14. Incubate with shaking at 4° C. for 30 minutes. • 15. Transfer 45 μl to capture plate, cover with adhesive cover, and incubate at 4° C. over night with shaking. • Day 3: • 1. Wash plates 4× with 200 μl 1× wash buffer (10× provided with kit). • 2. […] Incubate at room temperature with shaking for 1 hour. • 4. Wash 4× with 200 μl 1× Wash Buffer. • 5. […] Read on Sector Imager. Phospho-p38 Meso Scale ELISA Assay Day 1: • 1. Plate HCT-116 cells at 25,000 per well in 100 uL in 96 well clear dishes in normal growth medium. zday 2: • 1. Aspirate medium and replace with 90 μl reduced serum growth medium (1% FCS), incubate for 2 hours at 37° C. • 2. Make drugs at 10× in reduced serum medium and add 10 uL per well. • 3. Incubate at 37° C. for 4 hrs. • 4. Bring capture plates to room temperature. • 5. Block with 150 μl Blocking Solution (provided with kit) (600 mg Blocker A into 20 mL 1× Wash Buffer per plate) at room temperature with shaking. • 6. Wash plates 4× with 200 μl 1× wash buffer (10× provided with kit) before transferring lysates. • 7. Dilute TNFα to […] in reduced serum medium (this makes a 10× working stock). • 8. Add 10 μl TNFα to all wells except negative control wells, final concentration is 10 ng/mL. • 9. Incubate at 37° C. for 10 minutes. • 10. Remove medium by flicking into sink • 11. Wash cells with 100 uL ice cold PBS. • 12. Remove PBS by flicking into sink and patting on paper towels. • 13. Lyse cells in 50 μl ice cold 1× Complete Lysis Buffer plus phosphatase and protease inhibitors (all provided with kit) (10 mL Tris Lysis Buffer+200 μl Protease inhibitor solution+100 μl Phosphatase inhibitor I+100 μl Phosphatase inhibitor II). • 14. Incubate with shaking at 4° C. for 30 minutes. • 15. Dilute lysates before transferring to capture plate with 100 μl Complete p38 Lysate • Dilution Buffer (provided with kit) (10 mL of Diluent 20±200 μl Protease inhibitor solution+100 μl Phosphatase inhibitor I+100 μl Phosphatase inhibitor II). • 16. Transfer 50 μl of diluted lysates to capture plate, cover with adhesive cover, and incubate at 4° C. over night with shaking. Day 3: • 1. Wash plates 4× with 200 μl 1× wash buffer (10× provided with kit). • 2. […] Incubate at room temperature with shaking for 1 hour. • 4. Wash 4× with 200 μl 1× Wash Buffer. • 5. […] Read on Sector Imager. TAK1 Biochemical Assay

Counter-ions that a name gives are not always drawn.

As usually defined, the IC50 is the concentration at which inhibition is half-maximal. Take `Nc1ncc(-c2cnn([C@H]3CC[C@H](O)CC3)c2)c2cc(-c3csc4cnc(Cl)cc34)oc12` [Example 247, trans-4-{4-[7-amino-2-(5-chlorothieno[2,3-c]pyridin-3-yl)furo[2,3-c]pyridin-4-yl]-1H-pyrazol-1-yl}cyclohexanol bis(trifluoroacetate)]: the IC50 on TAK1-TAB1 fusion protein and in the assay on pJNK in HCT-116 cells was 100 to 1000 nM each time.

With `CNc1ncc(-c2cnn([C@H]3CC[C@H](O)CC3)c2)c2cc(-c3csc4cnc(F)cc34)oc12` [Example 283, trans-4-{4-[2-(5-fluorothieno[2,3-c]pyridin-3-yl)-7-(methylamino)furo[2,3-c]pyridin-4-yl]-1H-pyrazol-1-yl}cyclohexanol], the IC50 at TAK1-TAB1 fusion protein and in the assay on pJNK in HCT-116 cells was below 100 nM each time.

Turning to `Nc1ncc(-c2cnn([C@H]3CC[C@H](O)CC3)c2)c2c(Cl)c(-c3cccc4cnsc34)oc12` [Example 285, trans-4-{4-[7-amino-2-(1,2-benzothiazol-7-yl)-3-chlorofuro[2,3-c]pyridin-4-yl]-1H-pyrazol-1-yl}cyclohexanol trifluoroacetic Acid Salt], the IC50 at TAK1-TAB1 fusion protein and in the assay on pJNK in HCT-116 cells was 100 to 1000 nM in each case.

For the compound `CNc1ncc(-c2cnn(C3CCN(C(C)=O)CC3)c2)c2cc(-c3cccc4nnsc34)oc12` [Example 278, 1-(4-{4-[2-(1,2,3-benzothiadiazol-7-yl)-7-(methylamino)furo[2,3-c]pyridin-4-yl]-1H-pyrazol-1-yl}piperidin-1-yl)ethanone], the IC50 on TAK1-TAB1 fusion protein and with pJNK in HCT-116 cells was below 100 nM each time.

`CC(=O)N1CCC(n2cc(-c3cnc(N)c4oc(-c5csc6cnncc56)cc34)cn2)CC1` [Example 261, 1-(4-{4-[7-amino-2-(thieno[2,3-d]pyridazin-3-yl)furo[2,3-c]pyridin-4-yl]-1H-pyrazol-1-yl}piperidin-1-yl)ethanone diformate]: the IC50 on TAK1-TAB1 fusion protein was below 100 nM; with pJNK in HCT-116 cells, 100 to 1000 nM.

As to `Cc1ncc(-c2cnc(N)c3oc(-c4csc5cnccc45)cc23)s1` [Example 388, 4-(2-methyl-1,3-thiazol-5-yl)-2-(thieno[2,3-c]pyridin-3-yl)furo[2,3-c]pyridin-7-amine trifluoroacetate], the IC50 at TAK1-TAB1 fusion protein and with pJNK in HCT-116 cells was 100 to 1000 nM in each case.

For the compound `Nc1ncc(-c2cnn([C@H]3CC[C@H](O)CC3)c2)c2cc(-c3cccn4cncc34)oc12` [Example 365, trans-4-{4-[7-amino-2-(imidazo[1,5-a]pyridin-8-yl)furo[2,3-c]pyridin-4-yl]-1H-pyrazol-1-yl}cyclohexanol.diformate], the IC50 on TAK1-TAB1 fusion protein and with pJNK in HCT-116 cells was below 100 nM each time.

For `COc1nn([C@H]2CC[C@H](O)CC2)cc1-c1cnc(N)c2oc(-c3cccc4nnsc34)cc12` [Example 347, trans-4-{4-[7-amino-2-(1,2,3-benzothiadiazol-7-yl)furo[2,3-c]pyridin-4-yl]-3-methoxy-1H-pyrazol-1-yl}cyclohexanol diformate salt], the IC50 on TAK1-TAB1 fusion protein and in the assay on pJNK in HCT-116 cells was below 100 nM in each case.

Turning to `CNc1nc2cccc(-c3cc4c(-c5cnn([C@H]6CC[C@H](O)CC6)c5)cnc(N)c4o3)c2s1` [Example 351, trans-4-(4-{7-amino-2-[2-(methylamino)-1,3-benzothiazol-7-yl]furo[2,3-c]pyridin-4-yl}-1H-pyrazol-1-yl)cyclohexanol Trifluoroacetate (Salt)], the 50% inhibitory concentration (IC50) on TAK1-TAB1 fusion protein and with pJNK in HCT-116 cells was below 100 nM in each case.

In the case of `Nc1ncc(-c2cnn([C@H]3CC[C@H](O)CC3)c2)c2cc(-c3ccccc3)oc12` [Example 368, trans-4-[4-(7-amino-2-phenylfuro[2,3-c]pyridin-4-yl)-1H-pyrazol-1-yl]cyclohexanol], the IC50 on TAK1-TAB1 fusion protein and in the assay on pJNK in HCT-116 cells was 100 to 1000 nM in each case.

As to `Nc1ncc(-c2cnn(C3CCC(O)C3)c2)c2cc(-c3csc4cnccc34)oc12` (stereo not shown) [Example 306, 3-[4-(7-amino-2-thieno[2,3-c]pyridin-3-yl-furo[2,3-c]pyridin-4-yl)-pyrazol-1-yl]-cyclopentanol], the IC50 on TAK1-TAB1 fusion protein is below 100 nM; in the assay with pJNK in HCT-116 cells, 100 to 1000 nM.
